Experiments:
human LSD1 = human LSD1 (Homo sapiens (Human), UniProt O60341); assay: Evaluation of enzyme activity: LSD1 fluorescence coupling enzyme assay (HRP/Amplex Red); format: biochemical; conditions: human LSD1, histone H3(1-21)K4me2 peptide 10 μM, 30 min pre-incubation
Method: The purpose of this test is to test the in vitro inhibitory activities of the compounds against LSD1. The enzyme used in this experiment was human LSD1, and the standard substrate was histone H3(1-21)K4me2 peptide (10 μM). HCI-2509 (SP2509) was used as reference compound, and the fluorescence coupling enzyme assay was employed. The production of FAD-dependent H2O2 as a result of demethylase activity of LSD1 was measured by coupling with HRP and Amplex Red. Compounds as well as control compound HCl-2509 were tested in 10-dose IC50 mode with a 3-fold serial dilution in duplicate starting at 10 μm. All compounds were pre-incubated 30 mins with enzyme before added substrate to start reaction. Fluorescence measurement: Ex/Em=535/590 by EnVision.
The test compound's inhibitory activities against LSD11 was classified as: + for IC50≤50 nM; ++ for IC50>50 nM and ≤100 nM; +++ for IC50>100 nM and ≤500 nM, and the results are shown in Table 1.

H1417 cells = assay: Cell proliferation inhibitory activity on H1417 cells (CellTiter-Glo, 10 days); format: cell-based, human; conditions: for IC50: 10 days incubation; for Emax: NCI-H1417, H1417 cells, read-out: Maximum inhibition percentage (%)
Method: Experimental purposes: To test the proliferation inhibitory activities of the test compounds on H1417 cells.
Experimental materials: RPMI 1640 medium, fetal bovine serum, Promega CellTiter-Glo reagent. The H1417 cell line purchased from ATCC. Envision Multi-Label Analyzer (PerkinElmer).
Experimental method: H1417 cells were seeded in a black 384-well plate, 1000 cells per well in […] of cell suspension. The test compounds were diluted 3-fold with Epmotion to the 10th concentration i.e, the compounds were diluted from 10 mmol to […], and a double duplicate well experiment was set. 198 μL medium was added to the middle plate, according to the corresponding position, 2 μL gradient diluted compounds were added to the middle plate. The mixture was mixed evenly and transferred 20 μL per well to the cell plates. The cell plates were incubated in a carbon dioxide incubator for 10 days. 25 μL of Promega CellTiter-Glo reagent per well was added to the cell plate and the mixture was incubated for 10 minutes at room temperature to stabilize the luminescence signal. Readings were performed by PerkinElmer Envision multi-label analyzer.
Data analysis: The original data was converted to the inhibition rate by the equation (Max-Ratio)/(Max-Min)*100%, and the value of IC50 can be obtained by curve fitting with four parameters. (Model 205 in XLFIT5, iDBS)
The growth inhibitory activities of the test compounds on H1417 cells were classified as + for IC50≤100 nM; ++ for IC50>100 nM and ≤500 nM; +++ for IC50>500 nM and ≤1000 nM; the highest percentage inhibition of cell viability was classified as: […]; 90%>B≥70%; 70%>C≥50%.

[1] = Homo sapiens, NCI-H1417, 240 h, H1417 cells
[2] = Homo sapiens, highest percentage inhibition of cell viability

| Compound | IC50 (human LSD1) | IC50 (H1417 cells; [1]) | Emax (H1417 cells; [2]) | IC50 (H1417 cells; H1417 cells) | Maximum inhibition percentage (%) (H1417 cells; H1417 cells, highest percentage inhibition of cell viability) |
| --- | --- | --- | --- | --- | --- |
| CC(C)Oc1ccc(-c2nc(C3(CN[C@H]4CC4c4ccccc4)CCC3)no2)cc1 (stereo partly drawn) [Example 87] | ≤ 50 nM | 100 to 500 nM | 50 to 70% |  |  |
| FC(F)(F)Oc1ccc(-c2nc(C3(CN[C@H]4CC4c4ccccc4)CCC3)no2)cc1 (stereo partly drawn) [Example 88] | ≤ 50 nM | 100 to 500 nM | 50 to 70% |  |  |
| FC(F)Oc1ccc(-c2nc(C3(CN[C@H]4CC4c4ccccc4)CCC3)no2)cc1 (stereo partly drawn) [Example 89] | ≤ 50 nM | 100 to 500 nM | 50 to 70% |  |  |
| NC(=O)c1ccc(-c2nc(C3(CN[C@H]4CC4c4ccccc4)CCC3)no2)cc1 (stereo partly drawn) [Example 95] | ≤ 50 nM | ≤ 100 nM | 50 to 70% |  |  |
| N#Cc1ccc2c(c1)CN(CC1(CN[C@H]3CC3c3ccccc3)CC1)C2 (stereo partly drawn) [Example 100] | ≤ 50 nM | 100 to 500 nM | 50 to 70% |  |  |
| CN(C)[C@H]1CC[C@@H](c2nc(C3(CN[C@@H]4C[C@H]4c4ccccc4)CC3)no2)CC1 [Example 116] | ≤ 50 nM | 100 to 500 nM | 70 to 90% |  |  |
| O=C(N[C@H]1CC[C@@H](c2nc(C3(CN[C@@H]4C[C@H]4c4ccccc4)CC3)no2)CC1)C1CC1 [Example 117] | ≤ 50 nM | 100 to 500 nM | 70 to 90% |  |  |
| c1ccc(C2C[C@@H]2NCC2(c3noc(-c4ccc5scnc5c4)n3)CCC2)cc1 (stereo partly drawn) [Example 127] | ≤ 50 nM | 100 to 500 nM | 50 to 70% |  |  |
| COc1ccc(-c2nc(C3(CN[C@H]4CC4c4ccccc4)CCC3)no2)cn1 (stereo partly drawn) [Example 129] | ≤ 50 nM | 100 to 500 nM | 50 to 70% |  |  |
| FC(F)(F)c1ccc(-c2nc(C3(CN[C@H]4CC4c4ccccc4)CCC3)no2)cc1 (stereo partly drawn) [Example 132] | ≤ 50 nM | 100 to 500 nM | 50 to 70% |  |  |
| N[C@H]1CC[C@@H](c2nc(C3(CN[C@@H]4C[C@H]4c4ccccc4)CC3)no2)C1 [Example 147] | ≤ 50 nM | 500 to 1000 nM | 90 to 100% |  |  |
| O=C(O)[C@H]1C[C@H](c2nc(C3(CN[C@@H]4C[C@H]4c4ccccc4)CC3)no2)C1 [Example 149] | 50 to 100 nM |  |  | 500 to 1000 nM | C (70%>C≥50%) |
| N[C@@H](CCc1nc(C2(CN[C@@H]3C[C@H]3c3ccccc3)CC2)no1)C(=O)O [Example 153] | 100 to 500 nM | 500 to 1000 nM | 90 to 100% |  |  |
| c1ccc([C@@H]2C[C@H]2NCC2(c3noc([C@H]4C[C@H]5CNC[C@H]5C4)n3)CC2)cc1 [Example 156] | 50 to 100 nM | 100 to 500 nM | 70 to 90% |  |  |
| c1ccc([C@@H]2C[C@H]2NCC2(c3noc([C@@H]4C[C@H]5CNC[C@H]5C4)n3)CC2)cc1 [Example 157] | 50 to 100 nM | 500 to 1000 nM | 70 to 90% |  |  |
| c1ccc([C@@H]2C[C@H]2NCC2(c3noc(C4CCC5(CC4)CNC5)n3)CC2)cc1 [Example 158] | ≤ 50 nM | 500 to 1000 nM | 90 to 100% |  |  |
| NC1CCN(c2nc(C3(CN[C@@H]4C[C@H]4c4ccccc4)CC3)no2)CC1 [Example 159] | 50 to 100 nM | 100 to 500 nM | 90 to 100% |  |  |
| c1ccc(C2C[C@@H]2NCC2(c3noc(C4CCc5nc[nH]c5C4)n3)CC2)cc1 (stereo partly drawn) [Example 161] | ≤ 50 nM | 100 to 500 nM | 70 to 90% |  |  |
| c1ccc(C2C[C@@H]2NCC2(c3noc(-c4cn5c(n4)CCCC5)n3)CC2)cc1 (stereo partly drawn) [Example 162] | ≤ 50 nM | 500 to 1000 nM | 90 to 100% |  |  |
| c1ccc(C2C[C@@H]2NCC2(c3noc(CC4CCNCC4)n3)CC2)cc1 (stereo partly drawn) [Example 163] | 100 to 500 nM | 100 to 500 nM | 70 to 90% |  |  |
| COC(=O)[C@H]1CC[C@H](c2nc(C3(CN[C@@H]4C[C@H]4c4ccccc4)CC3)no2)CC1 [Example 171] | ≤ 50 nM | 100 to 500 nM | 50 to 70% |  |  |
| O=C(O)[C@H]1CC[C@@H](c2nc(C3(CN[C@H]4CC4c4ccccc4)CC3)no2)C1 (stereo partly drawn) [Example 174] | 100 to 500 nM | 500 to 1000 nM | 50 to 70% |  |  |
| O=C(O)[C@@H]1CC[C@H](c2nc(C3(CN[C@H]4CC4c4ccccc4)CC3)no2)C1 (stereo partly drawn) [Example 178] | 100 to 500 nM | 500 to 1000 nM | 70 to 90% |  |  |

| Compound | IC50 (human LSD1) | IC50 (H1417 cells; [1]) | Emax (H1417 cells; [2]) | IC50 (H1417 cells; H1417 cells) | Maximum inhibition percentage (%) (H1417 cells; H1417 cells, highest percentage inhibition of cell viability) |
| --- | --- | --- | --- | --- | --- |
| NC(=O)c1ccc(-c2nc(C3(CN[C@H]4CC4c4ccccc4)CC3)no2)cc1 (stereo partly drawn) [Example 182] | ≤ 50 nM | 500 to 1000 nM | 90 to 100% |  |  |
| CN(C)C(=O)c1ccc(-c2nc(C3(CN[C@H]4CC4c4ccccc4)CC3)no2)cc1 (stereo partly drawn) [Example 183] | ≤ 50 nM | 500 to 1000 nM | 90 to 100% |  |  |
| O=C(NC1CC1)c1ccc(-c2nc(C3(CN[C@H]4CC4c4ccccc4)CC3)no2)cc1 (stereo partly drawn) [Example 184] | ≤ 50 nM | 100 to 500 nM | 90 to 100% |  |  |
| N#Cc1ccc(-c2nc(C3(CN[C@H]4CC4c4ccccc4)CCC3)no2)cc1 (stereo partly drawn) [Example 192] | ≤ 50 nM | 100 to 500 nM | 50 to 70% |  |  |
| N#Cc1ccc(-c2nc(C3(CN[C@H]4CC4c4ccccc4)CCC3)no2)c(F)c1 (stereo partly drawn) [Example 193] | ≤ 50 nM | 100 to 500 nM | 50 to 70% |  |  |
| NC1CCC(NCC2(CN[C@H]3CC3c3ccccc3)CC2)CC1 (stereo partly drawn) [Example 195] | ≤ 50 nM | 100 to 500 nM | 50 to 70% |  |  |
| c1ccc(C2C[C@@H]2NCC2(CN[C@@H]3CC3c3ccccc3)CC2)cc1 (stereo partly drawn) [Example 198] | ≤ 50 nM | 100 to 500 nM | 50 to 70% |  |  |
| NC1(CN[C@H]2CC2c2ccccc2)CC1 (stereo partly drawn) [Example 199] | 50 to 100 nM | 500 to 1000 nM | 70 to 90% |  |  |
| O=C(O)c1ccc(CN2CCC3(CC2)CC(c2nc(C4(CN[C@H]5CC5c5ccccc5)CC4)no2)C3)cc1 (stereo partly drawn) [Example 206] | 100 to 500 nM | 500 to 1000 nM | 50 to 70% |  |  |
| c1ccc(C2C[C@@H]2NCC2(CN3CC4CNCC4C3)CC2)cc1 (stereo partly drawn) [Example 207] | ≤ 50 nM | 500 to 1000 nM | 50 to 70% |  |  |
| O=C(C1CC1)N1CCC(c2nc(C3(CN[C@H]4CC4c4ccccc4)CC3)no2)CC1 (stereo partly drawn) [Example 208] | ≤ 50 nM | 100 to 500 nM | 70 to 90% |  |  |
| C[C@@H]1CCCN1CC1(CN[C@H]2CC2c2ccccc2)CC1 (stereo partly drawn) [Example 213] | ≤ 50 nM | 100 to 500 nM | 50 to 70% |  |  |
| N[C@@H]1CCC[C@@H](c2nc(C3(CN[C@@H]4C[C@H]4c4ccccc4)CC3)no2)C1 [Example 214] | 50 to 100 nM | 100 to 500 nM | 70 to 90% |  |  |
| C[C@@H]1CN(CC2(CN[C@H]3CC3c3ccccc3)CC2)C[C@H](C)N1 (stereo partly drawn) [Example 216] | 100 to 500 nM | ≤ 100 nM | 90 to 100% |  |  |
| C[C@@H]1CN(CC2(CN[C@H]3CC3c3ccccc3)CC2)C[C@H](C)O1 (stereo partly drawn) [Example 217] | 100 to 500 nM | 500 to 1000 nM | 50 to 70% |  |  |
| c1ccc(C2C[C@@H]2NCC2(c3noc(C4CC5(CCNCC5)C4)n3)CC2)cc1 (stereo partly drawn) [Example 219] | ≤ 50 nM | 500 to 1000 nM | 90 to 100% |  |  |
| N[C@@H]1CCC[C@H](c2nc(C3(CN[C@@H]4C[C@H]4c4ccccc4)CC3)no2)C1 [Example 220] | 50 to 100 nM | 100 to 500 nM | 70 to 90% |  |  |
| N[C@H]1CC[C@H](Cc2nc(C3(CN[C@H]4CC4c4ccccc4)CC3)no2)CC1 (stereo partly drawn) [Example 225] | ≤ 50 nM | 100 to 500 nM | 90 to 100% |  |  |
| O=C(N1CCC(c2nc(C3(CN[C@H]4CC4c4ccccc4)CC3)no2)CC1)C(F)(F)F (stereo partly drawn) [Example 226] | ≤ 50 nM | ≤ 100 nM | 90 to 100% |  |  |
| O=C(O)[C@H](Cc1c[nH]c2ccccc12)NCC1(CN[C@@H]2C[C@H]2c2ccccc2)CC1 [Example 227] | 100 to 500 nM | ≤ 100 nM | 50 to 70% |  |  |
| c1ccc([C@@H]2C[C@H]2NCC2(CN3CCCNCC3)CC2)cc1 [Example 230] | 100 to 500 nM | 100 to 500 nM | 50 to 70% |  |  |
| N[C@H]1CC[C@H](c2nc(C3(CN[C@@H]4C[C@H]4c4ccccc4)CCC3)no2)CC1 [Example 233] | 100 to 500 nM | 100 to 500 nM | 70 to 90% |  |  |
| NC1CCC(c2nc(C3(CN[C@@H]4C[C@H]4c4ccccc4)CC3)no2)CC1(F)F (stereo partly drawn) [Example 244] | ≤ 50 nM | ≤ 100 nM | 70 to 90% |  |  |

From patent US11433053B2, “LSD1 inhibitor and preparation method and application thereof” (CSPC ZHONGQI PHARMACEUTICAL TECHNOLOGY (SHIJIAZHUANG) CO., …, priority 2017, dated 2022)
